Assay results taken from PMC7413516, “Antidepressant-like activity and safety profile evaluation of 1H-imidazo[2,1-f]purine-2,4(3H,8H)-dione derivatives as 5-HT1A receptor partial agonists” (PLoS ONE, 2020).
Where “and” joins values, the source holds several entries; their conditions need not be identical. Equal entries are not always repeated. Marks after values point to notes of the source that are not given here.

Key:
[1] = system: mice; test: Forced swim test (FST) in mice; type: in vivo, Swiss albino mice; conditions: given alone, 0.3 mg/kg s.c., 45 min before test
Description: (§1) The investigated compounds AZ-853 (8-(4-(4-(2-fluorophenyl)piperazin-1-yl)butyl)-1,3-dimethyl-1H-imidazo[2,1-f]purine-2,4(3H,8H)-dione and AZ-861 (1,3-dimethyl-8-(4-(4-(3-(trifluoromethyl)phenyl)piperazin-1-yl)butyl)-1H-imidazo[2,1-f]purine-2,4(3H,8H)-dione) were synthesised in the Department of Medicinal Chemistry, Faculty of Pharmacy, Jagiellonian University, and their synthesis was described earlier. AZ-853 and AZ-861 were suspended in 1% aqueous solution of Tween 80, and WAY-100635 (Sigma, Germany) was dissolved in 0.9% saline. In acute experiments, the selected compounds AZ-853 (0.156–2.5 mg/kg) and AZ-861 (0.625–2.5 mg/kg) were injected i.p. once 60 min before tests, whereas WAY-100635 (0.3 mg/kg) was administered subcutaneously (s.c.) 45 min before the test. […] In chronic experiments, AZ-853 and AZ-861 were administered i.p. once a day (between 9:00 AM and 10:00 AM) for 16 consecutive days at the minimum active doses selected from FST experiment, i.e. 0.625 and 1.25 mg/kg, respectively. All compounds were administered to mice at a volume of 10 ml/kg and to rats at a volume of 2 ml/kg. The control groups received 1% aqueous solution of Tween 80.
The experiment was carried out according to the method of Porsolt et al.. Swiss albino mice were individually placed in a glass cylinder (25 cm high; 10 cm in diameter) containing 10 cm of water maintained at 23–25°C, and were left there for 6 min. The total duration of immobility was recorded during the last 4 min of a 6-min. A mouse was regarded as immobile when it remained floating on the water, making only small movements to keep its head above it.
(§2) The Swiss albino mice were used in the experiment. AZ-853 and AZ-861 were injected once daily for 16 consecutive days. On the 1st and 15th day the administration of the compounds, 18-h spontaneous animal activity was registered (see below). FST, as described earlier, was performed on the 14th day just before the next treatment. To ensure that the effects observed in FST are not the result of increased motility of animals, on the 13th day, just before the next administration, the locomotor activity was measured as described earlier, from 2 to 6 min after test start, i.e. in the period identical to the duration of FST. Blood and organ collection was performed on the 17th day at 24 h after the last dose and fasting.

[2] = system: mice; test: Locomotor activity (Opto M3 activity monitor) in mice; type: in vivo, Swiss albino mice
Description: as §1, with “[…].” for “All compounds were administered to mice at a volume of 10 ml/kg and to rats at a volume of 2 ml/kg.”
Locomotor activity was recorded with an Opto M3 multi-channel activity monitor (MultiDevice Software v.1.3, Columbus Instruments). The Swiss albino mice were individually placed in plastic cages (220 × 120 × 130 mm) for 30 min habituation period, and then the crossings of each channel (ambulation) were counted from […] to 6 min, that is the time equal to the observation period in FST. The cages were cleaned up with 70% ethanol after each mouse.
as §2, with “[…].” for “On the 1st and 15th day the administration of the compounds, 18-h spontaneous animal activity was registered (see below).”

[3] = target: T1, human 5-HT1AR (Homo sapiens, UniProt P08908); set-up: TEV protease site; Gal4-VP16 transcription factor; host or cells: U2OS (Tango GPCR-bla U2OS parental line); method as in Pytka et al. [14]; conditions: β-arrestin, U2OS cells; ref Pytka et al. [14]; cited from earlier work
T1 sequence (P08908 1-422): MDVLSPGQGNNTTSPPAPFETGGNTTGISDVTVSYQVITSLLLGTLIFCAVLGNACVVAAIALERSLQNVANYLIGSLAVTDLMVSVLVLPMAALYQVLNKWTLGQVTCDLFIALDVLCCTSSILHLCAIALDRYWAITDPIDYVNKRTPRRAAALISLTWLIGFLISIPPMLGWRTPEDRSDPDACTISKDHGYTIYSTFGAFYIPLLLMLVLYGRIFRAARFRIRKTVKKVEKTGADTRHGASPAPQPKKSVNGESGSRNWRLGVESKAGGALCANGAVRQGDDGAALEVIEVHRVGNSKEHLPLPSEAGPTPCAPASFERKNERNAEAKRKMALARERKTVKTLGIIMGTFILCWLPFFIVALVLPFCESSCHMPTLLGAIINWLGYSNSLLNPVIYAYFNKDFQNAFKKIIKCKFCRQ

[4] = target: T2, human serotonin 5-HT1A receptor (Homo sapiens, UniProt P08908); set-up: host or cells: CHO-K1; method as in Pytka et al. [14]; conditions: pERK1/2, CHO-K1 cells; ref Pytka et al. [14]; cited from earlier work
T2 sequence (P08908 1-422): T1 sequence (P08908 1-422)

[5] = target: T3, human serotonin 5-HT1AR (Homo sapiens, UniProt P08908); set-up: host or cells: CHO-K1; method as in Pytka et al. [14]; conditions: cAMP, CHO-K1 cells; ref Pytka et al. [14]; cited from earlier work
T3 sequence (P08908 1-422): T1 sequence (P08908 1-422)

Compound	effect on immobility in FST [1]	effect on spontaneous locomotor activity, acute administration ([2]; 4 min period identical to FST, AZ-853 0.625, 1.25, 2.5 mg/kg, AZ-861 1.25 mg/kg, WAY-100635 0.3 mg/kg alone or combined)	Number of movements (individual animals) ([2]; acute, WAY-100635 0.3 mg/kg alone, 3 to 6 min, raw data, 0.3 mg/kg)	Number of movements (mean) ([2]; acute, WAY-100635 alone 0.3 mg/kg s.c., 3 to 6 min)	Emax (%) ± SEM, agonist mode [3]	Emax (%) ± SEM, agonist mode [4]	Emax (%) ± SEM, agonist mode [5]
COc1ccccc1N1CCN(CCN(C(=O)C2CCCCC2)c2ccccn2)CC1 [WAY-100635, reference compound]	had no effect on immobility	did not change the locomotor activity	130 and 88 and 93 and 242 and 100 and 107	122.9	–	–	–
COc1ccccc1N1CCN(CC(C(=O)NC(C)(C)C)c2ccccc2)CC1 (stereo not shown) [WAY-100135]	–	–	–	–	1±0.5^c %	2±1.0^c %	2±0.5^c %
